# From patent publication US20150258105A1, “METHODS FOR ACUTE AND LONG-TERM TREATMENT OF ALCOHOL DEPENDENCE” (DemeRx, Inc., priority 2014, published 2015)
# “Also recorded” adds a separate entry of the source.
# Columns and labels:
# [1] = Pharmacokinetics of noribogaine in healthy volunteers, ascending single oral dose (plasma, LCMSMS); details: for AUC0-216 / AUC0-∞ / Cmax / Tmax / t1/2 / CL/F: fasted healthy volunteers, mean (SD), n = 6; for mean AUC/24 hr / mean AUC/24: fasting conditions
# [2] = system: healthy, drug-free male volunteers; assay: Pupillometry (pupillary miosis) in healthy volunteers; type: in vivo, human
# Protocol: (§1) Pulse oximetry and capnography data were collected continuously using a GE Carescape B650 monitoring system from 2 hours prior to dosing and until six hours after dosing, and thereafter at 12, 24, 48 and 72 hours post-dosing. […] Pupillary miosis was assessed by pupillometry.
# Summary statistics (means, standard deviations, and coefficients of variation) were determined for each dose group for safety laboratory test data, ECG and pharmacokinetic parameters, and pharmacodynamic variables. Categorical variables were analysed using counts and percentages. Dose-proportionality of AUC and Cmax was assessed using linear regression. The effect of dose on pharmacodynamic parameter values over time was assessed using two-factor analysis of variance (ANOVA). Pairwise comparisons (with Tukey-Kramer adjustment) between each dose group to the placebo were conducted at each time point using the least squares estimates obtained from the ANOVA, using SAS Proc Mixed (SAS ver 6.0).
# [3] = system: healthy, drug-free male volunteers; assay: Cold pressor test (analgesic effect) in healthy volunteers; type: in vivo, human
# Protocol: Analgesic effect was assessed based on duration of hand immersion in ice water and on visual analog scale (VAS) pain scores upon hand removal from the water bath.
# (§2) Safety and tolerability of noribogaine were tested in the group of volunteers from Example 1. […] Safety evaluations included clinical monitoring, recording of adverse events (AEs), safety laboratory tests, vital signs, ECG telemetry from −2 h to 6 h after dosing, and 12-lead electrocardiograms (ECGs) up to 216 hours post-dosing.
# [4] = system: healthy, drug-free male volunteers; assay: Safety and tolerability of noribogaine in healthy humans (adverse events, vital signs, ECG); type: in vivo, human
# Protocol: as §1, §2
# [5] = system: opioid-dependent participants; assay: Time to resumption of opioid substitution treatment (OST) in opioid-dependent participants; type: in vivo, human; details: single 180 mg dose
# [6] = system: opioid-dependent participants; assay: Opiate withdrawal scales (COWS, SOWS, OOWS) in opioid-dependent participants; type: in vivo, human; details: first six hours following dosing
# Protocol: Patients were evaluated based on the Clinical Opiate Withdrawal Scale (COWS), Subjective Opiate Withdrawal Scale (SOWS), and Objective Opiate Withdrawal Scale (OOWS) scoring systems over the period of time between administration of noribogaine (or placebo) until resumption of OST. These scales are outlined in Guidelines for the Psychosocially Assisted Pharmacological Treatment of Opioid Dependence, World Health Organization, Geneva (2009), Annex 10, which is incorporated herein by reference in its entirety. The scales measure the intensity of withdrawal symptoms, based on clinical, subjective, and objective indicia.
# [7] = system: opioid-dependent participants; assay: QT interval prolongation (ΔQTc1) in opioid-dependent participants; type: in vivo, human; details: 60, 120, 180 mg, first 24 hours post administration
# Protocol: Patients' QT intervals were evaluated at regular time points throughout the study.
# [8] = system: patients dependent on alcohol; assay: Effect of noribogaine on withdrawal from alcohol in humans; type: in vivo, human; details: single oral dose of 2 mg/kg, at least 2 hours after last alcohol use; self-evaluation and clinical observation
# Protocol: Six patients are orally administered a single dose of 2 mg/kg noribogaine, and three patients receive placebo in a randomized, placebo-controlled, double-blind trial. All patients are dependent on alcohol. Treatment is administered at least 2 hours after last alcohol use.
# [9] = system: opioid-dependent participants; assay: Treatment emergent adverse events in opioid-dependent participants, single dose
# [10] = Pharmacokinetics in opioid-dependent patients, Phase IB study (serum noribogaine); details: 60, 120, 180 mg cohorts
# [11] = 30 mg single oral noribogaine dose, plasma
# [12] = 60 mg single oral noribogaine dose, plasma
# [13] = across dose groups, healthy volunteers, plasma
# [14] = after adjusting for baseline differences, p>0.9
smiles,measurement,setting,value
"CC[C@H]1C[C@@H]2C[C@H]3c4[nH]c5ccc(OC6OC(C(=O)O)C(O)C(O)C6O)cc5c4CCN(C2)[C@@H]13 (some centres unmarked) [Noribogaine glucuronide, noribogaine glucuronide]",AUC0-216,[1]; [11],25.7 (9.1) ng · hr/ml
same,AUC0-∞,[1]; [11],25.8 (9.3) ng · hr/ml
same,Cmax,[1]; [11],1.8 (0.6) ng/ml
same,Tmax,[1]; [11],3.0 (0.6) hr
same,t1/2,[1]; [11],20.6 (4.9) hr
same,AUC0-216,[1]; [12],65.0 (21.5) ng · hr/ml
same,AUC0-∞,[1]; [12],67.1 (21.9) ng · hr/ml
same,Cmax,[1]; [12],4.1 (1.2) ng/ml
same,Tmax,[1]; [12],3.8 (1.2) hr
same,t1/2,[1]; [12],23.1 (3.0) hr
same,mean half-life estimates,[1]; [13],21 to 23 h
same,time of peak concentrations after oral noribogaine dosing,[1]; [13],3 to 4 h
same,time by which detected in plasma of all subjects,"[1]; after 30 mg or 60 mg oral noribogaine, healthy volunteers",≤ 0.75 h
same,proportion of noribogaine glucuronide Cmax and AUC relative to noribogaine,[1]; both dose groups (30 mg and 60 mg),3-4%
CC[C@H]1CC2C[C@H]3c4[nH]c5ccc(O)cc5c4CCN(C2)C13 [noribogaine],pupillary constriction,"[2]; 3-60 mg single oral doses, dark-adapted pupil diameter up to 216 hours",no evidence of pupillary constriction
same,"pupil diameter, each dose group versus placebo (ANOVA)",[2]; [14],no statistically significant differences
same,analgesic effect in the cold pressor test,"[3]; 3-60 mg single oral doses, 1° C. water",no analgesic effect
same,"VAS pain scores, each dose group versus placebo (ANOVA)","[3]; after adjusting for baseline differences, p=0.17",no statistically significant differences
same,"duration of hand immersion, each dose group versus placebo (ANOVA)",[3]; [14],no statistically significant differences
same,number of adverse events reported,"[4]; 3 mg dose group, by two subjects",five
same,number of adverse events reported,"[4]; 10 mg dose group, by a single subject",one
same,number of adverse events reported,"[4]; 30 mg dose group, by a single subject",one
same,"oximetry, capnography, respiratory rate","[4]; 3-60 mg, healthy volunteers","no changes in oximetry or capnography, or changes in respiratory rate"
same,vital signs and safety laboratory tests,"[4]; 3-60 mg, healthy volunteers",no changes in vital signs or safety laboratory tests of note
same,QTcF values >500 msec,"[4]; 3-60 mg, healthy volunteers, ECGs up to 216 hours post-dosing",no QTcF values >500 msec at any time
same,"Adverse events, Mild","[4]; Dose 3 mg, healthy volunteers",Dizziness; also recorded: Epistaxis; also recorded: Headache; also recorded: Back pain
same,"Adverse events, Moderate","[4]; Dose 3 mg, healthy volunteers",Headache
same,"Adverse events, Mild","[4]; Dose 10 mg, healthy volunteers",Headache
same,"Adverse events, Mild","[4]; Dose 30 mg, healthy volunteers",Headache
same,intensity of adverse events,"[4]; all dose groups, all resolved prior to study completion",mild-moderate intensity
same,single increase in QTcF,"[4]; one subject dosed with 10 mg, at 24 hours post-dosing",> 60 ms
same,Time to resumption of OST compared with untreated patients and 60 mg,[5],"still longer than untreated patients (7 hours, not shown) or those administered 60 mg noribogaine"
same,"withdrawal symptoms (COWS, OOWS, SOWS scores)","[6]; 120 mg, prior to resumption of OST",fewer withdrawal symptoms than the other patients
same,"withdrawal symptoms versus placebo (COWS, OOWS, SOWS scores)","[6]; 60, 120, 180 mg",placebo generally experienced more withdrawal symptoms than patients who were administered noribogaine
same,QT interval prolongation (ΔQTc1),[7],dose-dependent increase in QT interval prolongation
same,symptoms of alcohol withdrawal compared to placebo,[8],fewer and/or less severe symptoms of alcohol withdrawal
same,AE: Catheter Site Infection,"[9]; 60 mg single dose, N = 6",0
same,AE: Catheter Site Pain,"[9]; 60 mg single dose, N = 6",0
same,AE: Catheter Site Related Reaction,"[9]; 60 mg single dose, N = 6",0
same,AE: Cellulitis,"[9]; 60 mg single dose, N = 6",0
same,AE: Diarrhoea,"[9]; 60 mg single dose, N = 6",0
same,AE: Dry Mouth,"[9]; 60 mg single dose, N = 6",0
same,AE: Ear and Labyrinth Disorders,"[9]; 60 mg single dose, N = 6",0
same,AE: Epistaxis,"[9]; 60 mg single dose, N = 6",0
same,AE: Euphoric Mood,"[9]; 60 mg single dose, N = 6",0
same,AE: General Disorders and Administration Site Conditions,"[9]; 60 mg single dose, N = 6",0
same,AE: Hyperaesthesia,"[9]; 60 mg single dose, N = 6",0
same,AE: Infections and Infestations,"[9]; 60 mg single dose, N = 6",0
same,AE: Limb Discomfort,"[9]; 60 mg single dose, N = 6",0
same,AE: Malaise,"[9]; 60 mg single dose, N = 6",0
same,AE: Nausea,"[9]; 60 mg single dose, N = 6",0
same,AE: Oropharyngeal Pain,"[9]; 60 mg single dose, N = 6",0
same,AE: Pseudoparalysis,"[9]; 60 mg single dose, N = 6",0
same,"AE: Respiratory, Thoracic and Mediastinal Disorders","[9]; 60 mg single dose, N = 6",0
same,AE: Rhinorrhoea,"[9]; 60 mg single dose, N = 6",0
same,AE: Skin Discomfort,"[9]; 60 mg single dose, N = 6",0
same,AE: Skin Irritation,"[9]; 60 mg single dose, N = 6",0
same,AE: Skin and Subcutaneous Tissue Disorders,"[9]; 60 mg single dose, N = 6",0
same,AE: Somnoience,"[9]; 60 mg single dose, N = 6",0
same,AE: Tinnitus,"[9]; 60 mg single dose, N = 6",0
same,AE: Tremor,"[9]; 60 mg single dose, N = 6",0
same,AE: Urinary Tract Infection,"[9]; 60 mg single dose, N = 6",0
same,AE: Vomiting,"[9]; 60 mg single dose, N = 6",0
same,frequency of headaches,[9]; 60 mg treatment group,frequent
same,frequency of headaches,[9]; 120 mg dose group,attenuated
same,AE: Back Pain,"[9]; 120 mg single dose, N = 6",0
same,AE: Catheter Site Infection,"[9]; 120 mg single dose, N = 6",0
same,AE: Catheter Site Related Reaction,"[9]; 120 mg single dose, N = 6",0
same,AE: Depressed Mood,"[9]; 120 mg single dose, N = 6",0
same,AE: Dry Eye,"[9]; 120 mg single dose, N = 6",0
same,AE: Dyspepsia,"[9]; 120 mg single dose, N = 6",0
same,AE: Euphoric Mood,"[9]; 120 mg single dose, N = 6",0
same,AE: Limb Discomfort,"[9]; 120 mg single dose, N = 6",0
same,AE: Malaise,"[9]; 120 mg single dose, N = 6",0
same,AE: Musculoskeletal and Connective Tissue Disorders,"[9]; 120 mg single dose, N = 6",0
same,AE: Psychiatric Disorders,"[9]; 120 mg single dose, N = 6",0
same,AE: Somnoience,"[9]; 120 mg single dose, N = 6",0
same,AE: Urinary Tract Infection,"[9]; 120 mg single dose, N = 6",0
same,frequency of headaches,[9]; 180 mg dose group,attenuated
same,AE: Catheter Site Infection,"[9]; 180 mg single dose, N = 6",0
same,AE: Catheter Site Pain,"[9]; 180 mg single dose, N = 6",0
same,AE: Depressed Mood,"[9]; 180 mg single dose, N = 6",0
same,AE: Diarrhoea,"[9]; 180 mg single dose, N = 6",0
same,AE: Dry Eye,"[9]; 180 mg single dose, N = 6",0
same,AE: Dyspepsia,"[9]; 180 mg single dose, N = 6",0
same,AE: Ear and Labyrinth Disorders,"[9]; 180 mg single dose, N = 6",0
same,AE: Epistaxis,"[9]; 180 mg single dose, N = 6",0
same,AE: Euphoric Mood,"[9]; 180 mg single dose, N = 6",0
same,AE: Hyperaesthesia,"[9]; 180 mg single dose, N = 6",0
same,AE: Malaise,"[9]; 180 mg single dose, N = 6",0
same,AE: Oropharyngeal Pain,"[9]; 180 mg single dose, N = 6",0
same,AE: Pseudoparalysis,"[9]; 180 mg single dose, N = 6",0
same,AE: Psychiatric Disorders,"[9]; 180 mg single dose, N = 6",0
same,"AE: Respiratory, Thoracic and Mediastinal Disorders","[9]; 180 mg single dose, N = 6",0
same,AE: Rhinorrhoea,"[9]; 180 mg single dose, N = 6",0
same,AE: Skin Discomfort,"[9]; 180 mg single dose, N = 6",0
same,AE: Skin Irritation,"[9]; 180 mg single dose, N = 6",0
same,AE: Skin and Subcutaneous Tissue Disorders,"[9]; 180 mg single dose, N = 6",0
same,AE: Somnoience,"[9]; 180 mg single dose, N = 6",0
same,AE: Tinnitus,"[9]; 180 mg single dose, N = 6",0
same,AE: Tremor,"[9]; 180 mg single dose, N = 6",0
same,hallucinatory effects,"[9]; 60, 120 or 180 mg single dose, opioid-dependent participants",no hallucinatory effects
same,dose dependence of maximum serum concentration (Cmax),[10],increased in a dose-dependent manner
same,CL/F,"[1]; 3 mg single oral noribogaine dose, plasma",41.4 (7.0) L/h
same,CL/F,"[1]; 10 mg single oral noribogaine dose, plasma",42.3 (12.0) L/h
same,CL/F,[1]; [11],46.9 (16.4) L/h
same,Tmax,"[1]; 30 mg single oral noribogaine dose, plasma, listed as noribogaine free base",1.75 h
same,CL/F,[1]; [12],34.0 (11.4) L/h
same,dose dependence of Cmax and AUC,"[1]; 3-60 mg single oral doses, healthy volunteers",increased linearly with dose
same,Volume of distribution,"[1]; across dose groups (3-60 mg), healthy volunteers",1417 to 3086 L
same,time of peak concentrations after oral noribogaine dosing,[1]; [13],2 to 3 h
same,absorption after oral dosing,[1]; healthy volunteers,rapidly absorbed
same,mean AUC/24 hr,"[1]; single dose of 3 mg noribogaine free base, healthy volunteers",3.1 ng/mL
same,mean AUC/24 hr,"[1]; single dose of 10 mg noribogaine free base, healthy volunteers",10.6 ng/mL
same,mean AUC/24,"[1]; single dose of 30 mg noribogaine free base, healthy volunteers",29.2 ng/mL
same,mean AUC/24,"[1]; single dose of 60 mg noribogaine free base, healthy volunteers",61 ng/mL
